“And” between values parts separate entries of the source, which are not always exact repeats. Equal entries are not always repeated. Structures can show the parent of a compound that is named as a salt.
What follows are molecules tested against norepinephrine transporter (NET) (Homo sapiens, UniProt P23975) (assay: cell-based). Settings: NET Ki, inhibition of transporter uptake activity.
Format: cell-based

Sequence of norepinephrine transporter (NET) (P23975 whole entry): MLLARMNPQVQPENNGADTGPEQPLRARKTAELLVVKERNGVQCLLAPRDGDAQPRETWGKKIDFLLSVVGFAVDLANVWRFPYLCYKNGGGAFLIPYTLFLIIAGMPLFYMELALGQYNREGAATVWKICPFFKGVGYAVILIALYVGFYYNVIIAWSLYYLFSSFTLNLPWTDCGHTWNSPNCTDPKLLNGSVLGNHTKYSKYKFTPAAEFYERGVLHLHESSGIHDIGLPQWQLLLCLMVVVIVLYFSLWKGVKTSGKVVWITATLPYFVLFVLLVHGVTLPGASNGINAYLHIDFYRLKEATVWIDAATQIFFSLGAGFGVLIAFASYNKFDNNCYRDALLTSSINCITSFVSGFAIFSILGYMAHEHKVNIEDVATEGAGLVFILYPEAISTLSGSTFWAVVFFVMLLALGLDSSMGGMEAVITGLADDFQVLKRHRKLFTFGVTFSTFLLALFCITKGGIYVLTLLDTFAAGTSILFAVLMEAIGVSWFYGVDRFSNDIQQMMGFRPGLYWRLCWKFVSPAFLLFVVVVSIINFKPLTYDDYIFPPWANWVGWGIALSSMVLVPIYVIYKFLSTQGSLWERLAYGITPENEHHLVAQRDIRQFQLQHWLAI

`Cc1ccc(C(=O)C(C)NCc2ccccc2)cc1` (centres unmarked) [Benzedrone, 2-(benzylamino)-1-(4-methylphenyl)propan-1-one hydrochloride] and `CC(NCc1ccccc1)C(=O)c1ccc2c(c1)OCO2` (centres unmarked) [Methylenedioxy-N-benzylcathinone, 2-(benzylamino)-1-(3,4-methylenedioxyphenyl)propan-1-one] are within 1.5-fold of each other in Ki: 1.22 µM for the first, 1.63 µM for the second.

Compared with `NC1Cc2ccc(I)cc2C1` (centres unmarked) [5-iod-2-aminoindane, 5-iodo-2,3-dihydro-1H-inden-2-amine hydrochloride], `NC1Cc2cc3c(cc2C1)OCO3` [Methylenedioxy-aminoindane, 6,7-dihydro-5H-cyclopenta[f][1,3]benzodioxol-6-amine] is 2.1-fold higher in Ki: 0.311 µM for the first, 0.641 µM for the second. The first binds more tightly here.

Going from `CCNC(C)C(=O)c1ccc(C)cc1` (centres unmarked) [Methylethcathinone, 2-ethylamino-1-(4-methylphenyl)propan-1-one hydrochloride] to `c1ccc(C(c2ccccc2)C2CCCCN2)cc1` (centres unmarked) [Desoxypipradrol, 2-benzhydrylpiperidine hydrochloride], the Ki falls from 1.67 µM to 0.213 µM (7.8-fold).

Same assay, conditions: NET pKi (mean +/- S.E.M), inhibition of transporter uptake activity, N=3

`Cc1ccc(C(=O)C(C)NCc2ccccc2)cc1` (centres unmarked) [Benzedrone, 2-(benzylamino)-1-(4-methylphenyl)propan-1-one hydrochloride] and `CC(NCc1ccccc1)C(=O)c1ccc2c(c1)OCO2` (centres unmarked) [Methylenedioxy-N-benzylcathinone, 2-(benzylamino)-1-(3,4-methylenedioxyphenyl)propan-1-one] are within 1.5-fold of each other in Ki: 3.16 µM for the first, 4.27 µM for the second.

First: NC1Cc2ccc(I)cc2C1 (centres unmarked) [5-iod-2-aminoindane, 5-iodo-2,3-dihydro-1H-inden-2-amine hydrochloride]
Second: NC1Cc2cc3c(cc2C1)OCO3 [Methylenedioxy-aminoindane, 6,7-dihydro-5H-cyclopenta[f][1,3]benzodioxol-6-amine]
The Ki of the first is 2-fold lower: 0.813 µM for the first, 1.66 µM for the second.

Compared with `CCNC(C)C(=O)c1ccc(C)cc1` (centres unmarked) [Methylethcathinone, 2-ethylamino-1-(4-methylphenyl)propan-1-one hydrochloride], `c1ccc(C(c2ccccc2)C2CCCCN2)cc1` (centres unmarked) [Desoxypipradrol, 2-benzhydrylpiperidine hydrochloride] is 7.9-fold lower in Ki: 4.37 µM for the first, 0.55 µM for the second.

Same assay, conditions: inhibition of transporter uptake activity, N=3

With `CNC(C)Cc1cccs1.Cl` (centres unmarked) [Methiopropamine] the “NET pKi (mean +/- S.E.M)” value was 6.09±0.07.

Same assay, conditions: read-out: NET Ki; inhibition of transporter uptake activity

With `CNC(C)Cc1cccs1.Cl` (centres unmarked) [Methiopropamine, methyl[(1-(2-thienyl)]propan-2-amine hydrochloride] the Ki was 0.313 µM.

What follows are molecules tested against dopamine transporter (DAT) (Homo sapiens, UniProt Q01959) (assay: cell-based). Settings: DAT Ki.
Sequence of dopamine transporter (DAT) (Q01959 whole entry): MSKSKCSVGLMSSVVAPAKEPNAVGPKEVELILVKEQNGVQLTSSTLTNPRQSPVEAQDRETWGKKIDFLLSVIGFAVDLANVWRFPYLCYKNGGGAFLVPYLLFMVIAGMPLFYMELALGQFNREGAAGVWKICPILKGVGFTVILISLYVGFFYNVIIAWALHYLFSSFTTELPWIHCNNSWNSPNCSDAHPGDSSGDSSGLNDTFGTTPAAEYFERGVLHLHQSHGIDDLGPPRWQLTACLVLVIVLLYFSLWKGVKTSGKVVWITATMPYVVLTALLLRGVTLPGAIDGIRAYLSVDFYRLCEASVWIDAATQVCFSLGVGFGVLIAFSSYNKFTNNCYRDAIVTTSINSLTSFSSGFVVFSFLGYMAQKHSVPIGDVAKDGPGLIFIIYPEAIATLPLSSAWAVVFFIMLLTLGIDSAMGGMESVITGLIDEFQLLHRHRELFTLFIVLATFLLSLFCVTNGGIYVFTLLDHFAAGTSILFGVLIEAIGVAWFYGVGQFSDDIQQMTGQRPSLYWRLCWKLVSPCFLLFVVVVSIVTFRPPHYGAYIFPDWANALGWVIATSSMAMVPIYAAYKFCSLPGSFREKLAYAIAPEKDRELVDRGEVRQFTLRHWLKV

For `CN(C)CCC=C1c2ccccc2CCc2ccccc21` [Amitriptyline, reference compound], the Ki was 4.64 µM.

Same assay, conditions: DAT Ki, inhibition of transporter uptake activity

In the case of `Cc1ccc(C(=O)C(C)NCc2ccccc2)cc1` (centres unmarked) [Benzedrone, 2-(benzylamino)-1-(4-methylphenyl)propan-1-one hydrochloride], the Ki is reported as 1.41 µM and 1.49 µM.

Going from `NC1Cc2ccc(I)cc2C1` (centres unmarked) [5-iod-2-aminoindane, 5-iodo-2,3-dihydro-1H-inden-2-amine hydrochloride] to `NC1Cc2cc3c(cc2C1)OCO3` [Methylenedioxy-aminoindane, 6,7-dihydro-5H-cyclopenta[f][1,3]benzodioxol-6-amine], the Ki rises from 1.59 µM to 4.92 µM (3.1-fold).

`CCNC(C)C(=O)c1ccc(C)cc1` (centres unmarked) [Methylethcathinone, 2-ethylamino-1-(4-methylphenyl)propan-1-one hydrochloride] and `CC(NCc1ccccc1)C(=O)c1ccc2c(c1)OCO2` (centres unmarked) [Methylenedioxy-N-benzylcathinone, 2-(benzylamino)-1-(3,4-methylenedioxyphenyl)propan-1-one] are within 1.5-fold of each other in Ki: 0.565 µM for the first, 0.637 µM for the second.

`c1ccc(C(c2ccccc2)C2CCCCN2)cc1` (centres unmarked) [Desoxypipradrol, 2-benzhydrylpiperidine hydrochloride] was tested, and the Ki was 0.032 µM.

Same assay, conditions: DAT pKi (mean +/- S.E.M)

Work on `CN(C)CCC=C1c2ccccc2CCc2ccccc21` [Amitriptyline, reference compound] yielded a Ki of 9.77 µM.

Same assay, conditions: DAT pKi (mean +/- S.E.M), inhibition of transporter uptake activity, N=3

Compared with `Cc1ccc(C(=O)C(C)NCc2ccccc2)cc1` (centres unmarked) [Benzedrone, 2-(benzylamino)-1-(4-methylphenyl)propan-1-one hydrochloride], `CC(NCc1ccccc1)C(=O)c1ccc2c(c1)OCO2` (centres unmarked) [Methylenedioxy-N-benzylcathinone, 2-(benzylamino)-1-(3,4-methylenedioxyphenyl)propan-1-one] is 2.3-fold lower in Ki: 2.29 µM for the first, 0.977 µM for the second.

Going from `NC1Cc2ccc(I)cc2C1` (centres unmarked) [5-iod-2-aminoindane, 5-iodo-2,3-dihydro-1H-inden-2-amine hydrochloride] to `NC1Cc2cc3c(cc2C1)OCO3` [Methylenedioxy-aminoindane, 6,7-dihydro-5H-cyclopenta[f][1,3]benzodioxol-6-amine], the Ki rises from 2.45 µM to 7.59 µM (3.1-fold).

First: CCNC(C)C(=O)c1ccc(C)cc1 (centres unmarked) [Methylethcathinone, 2-ethylamino-1-(4-methylphenyl)propan-1-one hydrochloride]
Second: c1ccc(C(c2ccccc2)C2CCCCN2)cc1 (centres unmarked) [Desoxypipradrol, 2-benzhydrylpiperidine hydrochloride]
The Ki of the first is 17-fold higher: 0.832 µM for the first, 0.0501 µM for the second.

Same assay, conditions: inhibition of transporter uptake activity, N=3

In the case of `CNC(C)Cc1cccs1.Cl` (centres unmarked) [Methiopropamine], the “DAT pKi (mean +/- S.E.M)” value is reported as 6.05±0.07.

Same assay, conditions: read-out: DAT Ki; inhibition of transporter uptake activity

Work on `CNC(C)Cc1cccs1.Cl` (centres unmarked) [Methiopropamine, methyl[(1-(2-thienyl)]propan-2-amine hydrochloride] yielded a Ki of 0.577 µM.

The molecules below were run against serotonin transporter (SERT) (Homo sapiens, UniProt P31645) (assay: cell-based). Settings: SERT Ki.
Sequence of serotonin transporter (SERT) (P31645 whole entry): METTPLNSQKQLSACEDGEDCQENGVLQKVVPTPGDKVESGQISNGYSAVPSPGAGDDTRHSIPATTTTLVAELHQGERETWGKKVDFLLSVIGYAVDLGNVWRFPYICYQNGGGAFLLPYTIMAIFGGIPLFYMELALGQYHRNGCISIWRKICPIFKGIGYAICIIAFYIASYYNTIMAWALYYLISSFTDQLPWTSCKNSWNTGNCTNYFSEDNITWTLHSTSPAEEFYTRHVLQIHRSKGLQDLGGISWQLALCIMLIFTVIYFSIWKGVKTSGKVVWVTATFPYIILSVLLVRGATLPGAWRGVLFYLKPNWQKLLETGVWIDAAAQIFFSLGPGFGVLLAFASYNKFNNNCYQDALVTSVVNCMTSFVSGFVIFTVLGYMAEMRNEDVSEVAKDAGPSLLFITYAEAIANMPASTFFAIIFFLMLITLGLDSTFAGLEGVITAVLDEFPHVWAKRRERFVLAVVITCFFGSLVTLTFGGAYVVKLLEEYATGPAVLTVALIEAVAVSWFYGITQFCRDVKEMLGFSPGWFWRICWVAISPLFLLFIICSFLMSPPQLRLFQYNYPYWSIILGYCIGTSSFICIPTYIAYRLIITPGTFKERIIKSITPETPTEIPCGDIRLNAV
Format: cell-based

With `NC1Cc2cc3c(cc2C1)OCO3` [Methylenedioxy-aminoindane, 6,7-dihydro-5H-cyclopenta[f][1,3]benzodioxol-6-amine] the Ki was over 10 µM.

Same assay, conditions: SERT Ki, inhibition of transporter uptake activity

`Cc1ccc(C(=O)C(C)NCc2ccccc2)cc1` (centres unmarked) [Benzedrone, 2-(benzylamino)-1-(4-methylphenyl)propan-1-one hydrochloride] and `CC(NCc1ccccc1)C(=O)c1ccc2c(c1)OCO2` (centres unmarked) [Methylenedioxy-N-benzylcathinone, 2-(benzylamino)-1-(3,4-methylenedioxyphenyl)propan-1-one] cannot be ordered by Ki: over 10 µM for the first, over 10 µM for the second.

Compared with `NC1Cc2ccc(I)cc2C1` (centres unmarked) [5-iod-2-aminoindane, 5-iodo-2,3-dihydro-1H-inden-2-amine hydrochloride], `c1ccc(C(c2ccccc2)C2CCCCN2)cc1` (centres unmarked) [Desoxypipradrol, 2-benzhydrylpiperidine hydrochloride] is higher in Ki: 0.879 µM for the first, over 10 µM for the second. The first binds more tightly here.

With `CCNC(C)C(=O)c1ccc(C)cc1` (centres unmarked) [Methylethcathinone, 2-ethylamino-1-(4-methylphenyl)propan-1-one hydrochloride] the Ki was 1.8 µM.

Same assay, conditions: SERT pKi (mean +/- S.E.M)

`NC1Cc2cc3c(cc2C1)OCO3` [Methylenedioxy-aminoindane, 6,7-dihydro-5H-cyclopenta[f][1,3]benzodioxol-6-amine] was tested, and the Ki was 11.7 µM.

Same assay, conditions: SERT pKi (mean +/- S.E.M), inhibition of transporter uptake activity, N=3

Compared with `Cc1ccc(C(=O)C(C)NCc2ccccc2)cc1` (centres unmarked) [Benzedrone, 2-(benzylamino)-1-(4-methylphenyl)propan-1-one hydrochloride], `CC(NCc1ccccc1)C(=O)c1ccc2c(c1)OCO2` (centres unmarked) [Methylenedioxy-N-benzylcathinone, 2-(benzylamino)-1-(3,4-methylenedioxyphenyl)propan-1-one] is 1.7-fold higher in Ki: 17.8 µM for the first, 29.5 µM for the second.

Going from `NC1Cc2ccc(I)cc2C1` (centres unmarked) [5-iod-2-aminoindane, 5-iodo-2,3-dihydro-1H-inden-2-amine hydrochloride] to `c1ccc(C(c2ccccc2)C2CCCCN2)cc1` (centres unmarked) [Desoxypipradrol, 2-benzhydrylpiperidine hydrochloride], the Ki rises from 1.78 µM to 53.7 µM (30-fold).

With `CCNC(C)C(=O)c1ccc(C)cc1` (centres unmarked) [Methylethcathinone, 2-ethylamino-1-(4-methylphenyl)propan-1-one hydrochloride] the Ki was 3.72 µM.

Same assay, conditions: inhibition of transporter uptake activity, N=3

For `CNC(C)Cc1cccs1.Cl` (centres unmarked) [Methiopropamine], the “SERT pKi (mean +/- S.E.M)” value was 4.14±0.07.

Same assay, conditions: read-out: SERT Ki; inhibition of transporter uptake activity

With `CNC(C)Cc1cccs1.Cl` (centres unmarked) [Methiopropamine, methyl[(1-(2-thienyl)]propan-2-amine hydrochloride] the Ki was over 10 µM.
